Assay results as given in patent publication US4774248A, “Methods of treating depression and depressive states using 5-phenyl-1,4,5,6-tetrahydropyrimidine derivatives” (priority 1985, dated 1988).
“Also recorded” adds a separate entry of the source.

How the values were obtained:
[1] = tested on: central nervous system (CNS); experiment: Neuropsychopharmacological profile (conclusions of the tests); format: in vivo, mice and rats; conditions: i.p.
Protocol: (§1) The results of toxicological and neuropsychopharmacological tests which were carried out with the products according to the invention have been summarized below. In these tests, solutions of the said products in distilled water were administered intraperitoneally in a volume of 20 ml/kg to male mice and in a volume of 5 ml/kg to male rats.

mice [2] = experiment: Spontaneous motility (actimeter); format: in vivo; conditions: i.p.
Protocol: as §1
0.5 h after they have received CRL 41 378, the mice (6 per dose, 12 control animals) are placed in an actimeter, where their motility is recorded for 30 minutes.

rats = experiment: Overall behavior and reactivities in rats; format: in vivo; conditions: i.p.
Protocol: as §1
(§2) Groups of 3 animals are observed before and then 0.25 h, 0.50 h, 1 h, 2 h, 3 h and 24 h after the administration of CRL 41 378. The following observations are made:
(§3) Groups of 3 animals are observed before and then 0.25 h, 0.50 h, 1 h, 2 h, 3 h and 24 h after the administration of CRL 41 329.

[3] = tested on: hypothermia, trembling and peripheral cholinergic symptoms induced by oxotremorine; experiment: Interaction with oxotremorine; format: in vivo; conditions: mice, i.p.; oxotremorine 0.5 mg/kg
Protocol: as §1
CRL 41 378 is administered to groups of 6 mice 0.5 h before the intraperitoneal injection of 0.5 mg/kg of oxotremorine.

mice [4] = experiment: Electric shock; format: in vivo; conditions: i.p.
Protocol: as §1
The test is performed on groups of 10 mice 30 minutes after the administration of CRL 41 378.

[5] = Acute toxicity, intraperitoneal (LD0, LD30, LD60, LD100); format: in vivo; conditions: mouse, in vivo, ip; 128 mg/kg i.p., male mice; read-out: death 24 h after administration
Protocol: as §1

male mice = experiment: as above; format: in vivo
Protocol: as §1

[6] = tested on: stereotypies induced by apomorphine; experiment: Interaction with apomorphine in rats; format: in vivo; conditions: i.p., apomorphine 0.5 mg/kg s.c.
Protocol: as §1
CRL 41 378 is administered to groups of 12 rats 0.5 h before the subcutaneous injection of 0.5 mg/kg of apomorphine.

[7] = tested on: hypothermia and ptosis induced by reserpine; experiment: Interaction with reserpine; format: in vivo; conditions: mice, i.p.; reserpine 2.5 mg/kg
Protocol: as §1
Four hours after the intraperitoneal injection of 2.5 mg/kg of reserpine, groups of 12 mice receive CRL 41 378.

mice [8] = experiment: Motility reduced by hypoxic aggression (acute hypobaric anoxia); format: in vivo; conditions: i.p.
Protocol: In these tests, solutions of the said products in distilled water were administered intraperitoneally in a volume of 20 ml/kg to male mice and in a volume of 5 ml/kg to male rats.

mice [9] = experiment: Overall behavior and reactivities in mice; format: in vivo; conditions: i.p.
Protocol: as §1, §2, §3

mice [10] = experiment: Intergroup aggressiveness; format: in vivo; conditions: mice, i.p.
Protocol: as §1
After they have stayed for 3 weeks in the two halves of a cage divided by an opaque partition, groups of 3 mice receive CRL 41 378. Half an hour later, the two groups from the same cage are brought together by removal of the partition and the number of fights which occur in 10 minutes is noted.

[11] = tested on: hypothermia, righting behavior and stereotypies induced by apomorphine; experiment: Interaction with apomorphine in mice; format: in vivo; conditions: i.p.
Protocol: as §1
CRL 41 378 is administered to groups of 6 mice 30 minutes before the subcutaneous injection of 1 or 16 mg/kg of apomorphine.

Cl.Clc1ccc(C2CN=CNC2)cc1 (stereo not drawn) [CRL 41 336, 5-(4-chlorophenyl)-1,4,5,6-tetrahydropyrimidine hydrochloride]
antidepressant effects [1]: antidepressant effects | peripheral α-adrenergic stimulant effects [1]: peripheral α-adrenergic stimulant effects appearing at high doses, especially as mydriasis and piloerection in rats | sedative effects ([1]; hydrochloride): sedation in mice and rats; also recorded: hypothermia (transient) in mice | spontaneous motor activity (mice [2]): a decrease in the spontaneous motor activity | overall behavior and reactivities (rats; 4 mg/kg): mydriasis for 2 hours (maximum 0.5 h after administration) | overall behavior and reactivities (rats; 16 mg/kg, hydrochloride): sedation for 3 h; also recorded: a decrease in the breathing rate for 3 h; also recorded: mydriasis for 3 h (with its maximum intensity 0.5 h after administration); also recorded: piloerection for 1 h; also recorded: vasodilation (of the paws) for 2 h | overall behavior and reactivities (rats; 0.25 and 1 mg/kg): behavior, reactivities and variations in rectal temperature and pupil diameter which are substantially comparable to those of the animals in the control group | action on hypothermia induced by oxotremorine [3]: distinct antagonism of the hypothermia induced by apomorphine and oxotremorine | lethal effects of electric shock (mice [4]): aggravation of the lethal effect of electric shock | mortality at 24 h [5]: 60% | toxic signs in the animals treated (male mice; 64 mg/kg i.p.): all the animals treated exhibit sedation and a decrease in the breathing rate | toxic signs in the animals treated (male mice; 128 mg/kg i.p.): the animals exhibit sedation and a decrease in the breathing rate | LD0 (maximum non-lethal dose) (male mice; intraperitoneal): greater than 64 mg/kg | LD60 (male mice; intraperitoneal): about 128 mg/kg | LD100 (minimum dose lethal to all the animals) (male mice; intraperitoneal): 200 to 210 mg/kg | action on stereotypies induced by apomorphine [6]: decreases the stereotypies induced by apomorphine in rats and mice | action on hypothermia induced by reserpine [7]: more moderate antagonism of the hypothermia induced by reserpine | motor recovery after acute hypobaric hypoxia (mice [8]): a decrease in the motility after acute hypobaric hypoxia | moderate hypothermia (mice [9]; 32 mg/kg, from 1 to 3 hours): -1.3 °C | overall behavior and reactivities (mice [9]; 32 mg/kg, hydrochloride): sedation for 0.25 h; also recorded: a decrease in the breathing rate from 1 to 3 hours; also recorded: moderate hypothermia; also recorded: vasodilation of the ears and tail from 0.5 h to 3 h | overall behavior and reactivities (mice [9]; 0.5 to 8 mg/kg): no distinct modification of the behavior and reactivities | intergroup aggressiveness (number of fights) (mice [10]): a decrease in the intergroup aggressiveness in mice | action on hypothermia induced by apomorphine [11]: distinct antagonism of the hypothermia induced by apomorphine and oxotremorine | action on righting behavior and stereotypies due to apomorphine [11]: decreases the stereotypies induced by apomorphine in rats and mice
